Experimental data published in patent publication US6506431B2, “Spore germination inhibitor and food containing the same” (Ajinomoto Co., Inc., priority 2000, dated 2003).

Key:
Bacillus subtilis spores [1] = assay: Spore germination-inhibitory effects by CPC, AGFK germinator (Example 2); type: cell-based; conditions: 1 mg/ml CPC, 37° C., 2 hours
Protocol: The germination-inhibitory activity was measured as follows: ½ volume of a sample was allowed to react with ½ volume of spore suspension (0.2 mg/ml Bacillus subtilis spores, 40 mM Tris HCl, pH 7.5) containing germinator (20 mM L-asparagine, 2 mM D-glucose, 2 mM D-fructose, 20 mM KCl) at 37° C. The spores gradually darkened with germination increase, and turbidity of the suspension decreased. Thereupon, the turbidity of the spore suspension was measured at 600 nm using a spectrophotometer, and a germination rate was determined by calculating the rate of decrease of turbidity. In order to examine the germination-inhibitory effects of CPC, the following tests were conducted. Spore suspension containing 0.1 mg/ml Bacillus subtilis spores, 20 mM Tris.HCl, pH 7.5. Spore suspension as above further containing 10 mM L-asparagine, 1 mM D-glucose, 1 mM D-fructose and 10 mM KCl as germinator. Spore suspension as above containing the germination (Test Group 2) and further containing 1 mg/ml CPC. The above spore suspensions were allowed to react at 37° C. for 2 hours, and spore germination conditions were examined. The turbidity of each test group after 2 hours was measured at 600 nm using a spectrophotometer. In the test group 2, the turbidity of the spore suspension was decreased remarkably compared with the start of the reaction, and sufficient germination of spores was found. […]

[2] = Solubility of CPC (properties); type: physicochemical
Bacillus subtilis spores [3] = assay: Germination inhibition by combination of CPC and D-alanine in sufficient nutrients (Example 3); type: cell-based; conditions: 1 mg/ml each; for variation of the turbidity of the spore suspension at 600 nm (germination): 25 g/l Bacto-LB broth plus AGFK germinator, 37° C., 2 hours; for inhibition at 1000 µg/mL: Bacillus subtilis, 0.5 h, LB broth plus AGFK, variation of OD600 for 30 minutes, test group 1 = 100%, test group 2 = 0%, read-out: germination inhibition rate
Protocol: Thereupon, in order to examine germination-inhibitory effects by the combination of CPC and D-alanine which is a known germination-inhibitory substance, the following test groups were prepared. Spore suspension containing 0.1 mg/ml Bacillus subtilis spores, 20 mM Tris.HCl, pH 7.5. Spore suspension containing 0.1 mg/ml Bacillus subtilis, 25 g/l Bacto-LB broth, Miller (DIFCO) as sufficient nutrients, and 10 mM L-asparagine, 1 mM D-glucose, 1 mM D-fructose and 10 mM KCl (AGFK system) as germinator. Spore suspension as above containing the sufficient nutrients (Test Group 2) and further containing 1 mg/ml CPC. Spore suspension as above containing the sufficient nutrients (Test Group 2) and further containing 1 mg/ml D-alanine. Spore suspension as above containing the sufficient nutrients (Test Group 2) and further containing 1 mg/ml CPC and 1 mg/ml D-alanine. The above spore suspensions were allowed to react at 37° C. for 2 hours, and spore germination conditions were examined. The variation of the turbidity of each test group was measured through the above reaction at 600 nm using a spectrophotometer. […] After 2 hours, the turbidity became the same turbidity as the initial one, and growth subsequest to the germination (vegetative growth) was observed. […] Each inhibition rate was calculated based on the variation of OD600 value for 30 minutes from the start of measurement wherein the germination inhibition rate in the test group 1 is assigned 100% and that in the test group 2 is assigned 0%.

Row | SMILES | spore germination observed by phase-contrast microscope (Bacillus subtilis spores [1]; AGFK germinator) | spore germination by turbidity of the spore suspension at 600 nm (Bacillus subtilis spores [1]; germinator 10 mM L-asparagine, 1 mM D-glucose, 1 mM D-fructose, 10 mM KCl) | solubility [2] | variation of the turbidity of the spore suspension at 600 nm (germination) (Bacillus subtilis spores [3]) | inhibition at 1000 µg/mL (Bacillus subtilis spores [3]) [%]
1 | NC(=O)c1cccc(C(=O)O)n1 [CPC, 6-carbamoyl-2-pyridine carboxylic acid] | germination of spores was not recognized | germination was not observed | Soluble in water, particularly alkaline water, and organic solvent, such as pyridine and DMSO | growth subsequent to the germination was observed | 9
2 | C[C@@H](N)C(=O)O [D-alanine, reference compound] | – | – | – | growth subsequent to the germination was observed | 16
